Results taken from ChEMBL document CHEMBL3804797, “Discovery of Aryl Sulfonamides as Isoform-Selective Inhibitors of NaV1.7 with Efficacy in Rodent Pain Models” (ACS Med Chem Lett, 2016).
Values belong to the compound of their own block, whether it stands above or below them. Activity calls are given as the source filed them. The rule behind the calls is not given here.

Assays:
Cytochrome P450 2D6 = Cytochrome P450 2D6 (Homo sapiens, UniProt P10635); assay: Inhibition of CYP2D6 in human liver microsomes using dextromethorphan as substrate after 30 mins by LC/MS/MS analysis; assay type: ADME
hERG (KCNH2) = hERG (KCNH2) (Homo sapiens, UniProt Q12809); assay: Displacement of [3H] astemizole from human ERG channel at 5 uM; conditions: probe [3H] astemizole
Cytochrome P450 3A4 = Cytochrome P450 3A4 (Homo sapiens, UniProt P08684); assay: Inhibition of CYP3A4 in human liver microsomes using testosterone/midazolam as substrate after 30 mins by LC/MS/MS analysis; assay type: ADME
Cytochrome P450 1A2 = molecular target: T1, Cytochrome P450 1A2 (Homo sapiens, UniProt P05177); assay: Inhibition of CYP1A2 in human liver microsomes using phenacetin as substrate after 30 mins by LC/MS/MS analysis; assay type: ADME
T1 sequence (P05177 whole entry): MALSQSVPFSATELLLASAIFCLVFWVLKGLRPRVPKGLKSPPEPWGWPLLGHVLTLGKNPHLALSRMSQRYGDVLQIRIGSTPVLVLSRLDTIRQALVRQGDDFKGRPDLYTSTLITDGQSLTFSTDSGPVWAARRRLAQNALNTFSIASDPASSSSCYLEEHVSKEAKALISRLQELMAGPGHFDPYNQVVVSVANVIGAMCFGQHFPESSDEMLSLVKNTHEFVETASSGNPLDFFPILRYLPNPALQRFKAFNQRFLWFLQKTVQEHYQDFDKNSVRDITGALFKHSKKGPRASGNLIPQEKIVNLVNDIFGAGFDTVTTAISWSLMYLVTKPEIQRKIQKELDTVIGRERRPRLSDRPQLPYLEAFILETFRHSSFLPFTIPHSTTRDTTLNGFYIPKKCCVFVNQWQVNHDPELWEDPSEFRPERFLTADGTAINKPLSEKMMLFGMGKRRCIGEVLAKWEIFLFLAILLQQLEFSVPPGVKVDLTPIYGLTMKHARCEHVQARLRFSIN

Cytochrome P450 2C9 = Cytochrome P450 2C9 (Homo sapiens, UniProt P11712); assay: Inhibition of CYP2C9 in human liver microsomes using warfarin as substrate after 30 mins by LC/MS/MS analysis; assay type: ADME
Cytochrome P450 2C19 = Cytochrome P450 2C19 (Homo sapiens, UniProt P33261); assay: Inhibition of CYP2C19 in human liver microsomes using mephenytoin as substrate after 30 mins by LC/MS/MS analysis; assay type: ADME
Mus musculus [1] = assay: Analgesic activity in mouse assessed as reduction in CFA-induced cold allodynia at 30 mg/kg, ip administered 1 hr prior to acetone challenge on day 2 post CFA injection measured for 120 secs relative to vehicle control; assay type: functional; design: scale not given: the % may be the effect or the level left
Rattus norvegicus [2] = assay: Analgesic activity in rat assessed as reduction in formalin-induced late phase pain response at 100 mg/kg, ip dosed 2 hrs prior to formalin challenge measured over 10 to 40 mins by automated nociception analysis relative to formalin; assay type: functional; design: scale not given: the % may be the effect or the level left
Rattus norvegicus [3] = assay: Analgesic activity in rat assessed as inhibition of aconitine-induced pain response at 100 mg/kg, ip dosed 2 hrs prior to aconitine challenge measured over 60 mins by automated nociception analysis relative to aconitine; assay type: functional; design: scale not given: the % may be the effect or the level left
Rattus norvegicus [4] = assay: Analgesic activity in formalin-induced rat pain model assessed as free plasma concentration required to show efficacy at 30 to 100 mg/kg, ip dosed 2 hrs prior to aconitine challenge measured over 60 mins by automated nociception analysis; assay type: functional
Rattus norvegicus [5] = assay: Analgesic activity in aconitine-induced rat pain model assessed as free plasma concentration required to show efficacy at 30 to 100 mg/kg, ip dosed 2 hrs prior to aconitine challenge measured over 60 mins by automated nociception analysis; assay type: functional
Mus musculus [6] = assay: Analgesic activity in mouse assessed as reduction in CFA-induced cold allodynia at 100 mg/kg, ip administered 1 hr prior to acetone challenge on day 2 post CFA injection measured for 120 secs relative to vehicle control; assay type: functional; design: scale not given: the % may be the effect or the level left
[7] = molecular target: Sodium channel protein type 9 subunit alpha (Rattus norvegicus, UniProt O08562); assay: Inhibition of rat Nav1.7 channel by automated voltage clamp analysis
Homo sapiens = organism: Homo sapiens; assay: Selectivity ratio of IC50 for human Nav1.5 to IC50 for human Nav1.7
[8] = Selectivity ratio of IC50 for rat Nav1.7 to IC50 for human Nav1.7
[9] = molecular target: Sodium channel protein type 5 subunit alpha (Homo sapiens, UniProt Q14524); assay: Inhibition of full length human Nav1.5 channel expressed in HEK cells co-expressing human sodium channel subunit beta1 at holding potential -60 mV by automated voltage clamp analysis; assay type: cell-based, HEK293
[10] = molecular target: Sodium channel protein type 9 subunit alpha (Homo sapiens, UniProt Q15858); assay: Inhibition of full length human Nav1.7 channel expressed in HEK cells co-expressing human sodium channel subunit beta1 at holding potential -60 mV by automated voltage clamp analysis; assay type: cell-based, HEK293
[11] = molecular target: Sodium channel protein type 1 subunit alpha (Homo sapiens, UniProt P35498); assay: Inhibition of full length human Nav1.1 channel expressed in HEK cells co-expressing human sodium channel subunit beta1 at holding potential -40 mV by automated voltage clamp analysis; assay type: cell-based, HEK293
[12] = molecular target: Sodium channel protein type 10 subunit alpha (Homo sapiens, UniProt Q9Y5Y9); assay: Inhibition of full length human Nav1.8 channel expressed in HEK cells co-expressing human sodium channel subunit beta3 at holding potential -20 mV by manual voltage clamp analysis; assay type: cell-based, HEK293
[13] = molecular target: Sodium channel protein type 4 subunit alpha (Homo sapiens, UniProt P35499); assay: Inhibition of full length human Nav1.4 channel expressed in HEK cells co-expressing human sodium channel subunit beta1 by automated voltage clamp analysis; assay type: cell-based, HEK293
[14] = molecular target: Sodium channel protein type 2 subunit alpha (Homo sapiens, UniProt Q99250); assay: Inhibition of full length human Nav1.2 channel expressed in HEK cells co-expressing human sodium channel subunit beta1 at holding potential -35 mV by automated voltage clamp analysis; assay type: cell-based, HEK293
[15] = molecular target: Sodium channel protein type 3 subunit alpha (Homo sapiens, UniProt Q9NY46); assay: Inhibition of full length human Nav1.3 channel expressed in HEK cells co-expressing human sodium channel subunit beta1 at holding potential -50 mV by automated voltage clamp analysis; assay type: cell-based, HEK293
[16] = molecular target: Sodium channel protein type 8 subunit alpha (Homo sapiens, UniProt Q9UQD0); assay: Inhibition of full length human Nav1.6 channel expressed in HEK cells co-expressing human sodium channel subunit beta1 at holding potential -35 mV by automated voltage clamp analysis; assay type: cell-based, HEK293
Rattus norvegicus [17] = assay: Analgesic activity in ip dosed rat assessed as inhibition of formalin-induced late phase pain response dosed 2 hrs prior to formalin challenge measured over 10 to 40 mins by automated nociception analysis; assay type: functional, organism-based
Mus musculus [18] = assay: Analgesic activity in mouse assessed as reduction in CFA-induced cold allodynia at 10 mg/kg, ip administered 1 hr prior to acetone challenge on day 2 post CFA injection measured for 120 secs relative to vehicle control; assay type: functional, organism-based
Rattus norvegicus [19] = assay: Analgesic activity in rat assessed as delay in onset of formalin-induced pain response at 100 mg/kg,ip dosed 2 hrs prior to formalin challenge measured over 60 mins by automated nociception analysis; assay type: functional, organism-based
Rattus norvegicus [20] = assay: Analgesic activity in rat assessed as inhibition of formalin-induced late phase pain response at 30 mg/kg,ip dosed 2 hrs prior to formalin challenge measured over 10 to 40 mins by automated nociception analysis; assay type: functional, organism-based
Rattus norvegicus [21] = assay: Analgesic activity in rat assessed as inhibition of aconitine-induced pain response at 30 mg/kg, ip dosed 2 hrs prior to aconitine challenge measured over 60 mins by automated nociception analysis relative to control; assay type: functional, organism-based
Mus musculus [22] = assay: Analgesic activity in ip dosed mouse assessed as reduction in CFA-induced cold allodynia administered 1 hr prior to acetone challenge on day 2 post CFA injection measured for 120 secs relative to vehicle control; assay type: functional, organism-based

Sodium channel protein type 5 subunit alpha, sequence (Q14524 whole entry): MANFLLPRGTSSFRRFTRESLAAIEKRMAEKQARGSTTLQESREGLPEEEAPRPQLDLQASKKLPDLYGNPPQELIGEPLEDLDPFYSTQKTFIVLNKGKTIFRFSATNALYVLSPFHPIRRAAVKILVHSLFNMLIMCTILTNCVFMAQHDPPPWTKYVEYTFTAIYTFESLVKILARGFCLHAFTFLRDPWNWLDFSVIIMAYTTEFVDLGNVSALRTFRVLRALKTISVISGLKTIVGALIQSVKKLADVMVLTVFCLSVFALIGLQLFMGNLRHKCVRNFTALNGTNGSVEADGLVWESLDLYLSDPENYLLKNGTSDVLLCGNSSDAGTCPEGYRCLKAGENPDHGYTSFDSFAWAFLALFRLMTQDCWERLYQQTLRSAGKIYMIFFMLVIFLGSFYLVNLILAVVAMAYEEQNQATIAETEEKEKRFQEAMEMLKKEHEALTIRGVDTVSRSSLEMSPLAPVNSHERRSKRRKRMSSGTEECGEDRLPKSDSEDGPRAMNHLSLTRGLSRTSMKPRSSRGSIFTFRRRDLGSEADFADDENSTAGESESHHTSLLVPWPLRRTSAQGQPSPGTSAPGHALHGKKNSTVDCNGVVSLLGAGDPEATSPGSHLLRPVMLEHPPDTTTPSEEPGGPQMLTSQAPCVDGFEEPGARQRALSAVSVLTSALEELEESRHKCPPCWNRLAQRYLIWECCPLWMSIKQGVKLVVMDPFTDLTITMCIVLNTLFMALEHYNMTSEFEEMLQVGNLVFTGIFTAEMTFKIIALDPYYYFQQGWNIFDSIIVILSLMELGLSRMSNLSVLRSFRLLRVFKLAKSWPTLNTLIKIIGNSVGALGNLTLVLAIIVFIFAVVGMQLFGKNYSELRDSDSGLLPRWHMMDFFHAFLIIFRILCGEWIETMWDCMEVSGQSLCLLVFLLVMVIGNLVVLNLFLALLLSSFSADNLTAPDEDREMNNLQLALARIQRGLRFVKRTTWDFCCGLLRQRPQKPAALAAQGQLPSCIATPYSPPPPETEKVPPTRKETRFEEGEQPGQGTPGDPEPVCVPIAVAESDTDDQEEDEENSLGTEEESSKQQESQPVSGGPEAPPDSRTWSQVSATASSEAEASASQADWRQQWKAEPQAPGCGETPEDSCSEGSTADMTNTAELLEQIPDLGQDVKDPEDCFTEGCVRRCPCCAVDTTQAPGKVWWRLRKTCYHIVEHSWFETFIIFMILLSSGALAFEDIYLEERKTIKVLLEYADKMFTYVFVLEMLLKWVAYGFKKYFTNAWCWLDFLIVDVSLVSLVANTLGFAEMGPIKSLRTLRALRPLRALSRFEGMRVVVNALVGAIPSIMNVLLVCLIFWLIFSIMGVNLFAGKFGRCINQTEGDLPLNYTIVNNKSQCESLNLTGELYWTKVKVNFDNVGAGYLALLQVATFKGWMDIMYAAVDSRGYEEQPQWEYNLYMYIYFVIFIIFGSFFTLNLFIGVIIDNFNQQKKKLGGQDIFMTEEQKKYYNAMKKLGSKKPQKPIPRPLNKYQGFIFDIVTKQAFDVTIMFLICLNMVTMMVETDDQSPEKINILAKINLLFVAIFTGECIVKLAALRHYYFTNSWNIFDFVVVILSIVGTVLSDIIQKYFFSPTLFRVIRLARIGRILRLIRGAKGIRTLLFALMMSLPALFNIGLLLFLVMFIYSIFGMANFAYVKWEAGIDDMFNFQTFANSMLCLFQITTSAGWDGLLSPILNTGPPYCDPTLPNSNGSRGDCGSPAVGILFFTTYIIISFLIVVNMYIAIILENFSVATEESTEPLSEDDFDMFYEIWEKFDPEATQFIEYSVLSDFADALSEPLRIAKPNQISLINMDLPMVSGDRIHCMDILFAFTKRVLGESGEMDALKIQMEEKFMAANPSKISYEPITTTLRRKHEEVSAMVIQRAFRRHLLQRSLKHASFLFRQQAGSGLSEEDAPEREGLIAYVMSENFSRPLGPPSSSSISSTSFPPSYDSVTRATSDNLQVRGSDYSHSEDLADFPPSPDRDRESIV
hERG (KCNH2), sequence (Q12809 whole entry): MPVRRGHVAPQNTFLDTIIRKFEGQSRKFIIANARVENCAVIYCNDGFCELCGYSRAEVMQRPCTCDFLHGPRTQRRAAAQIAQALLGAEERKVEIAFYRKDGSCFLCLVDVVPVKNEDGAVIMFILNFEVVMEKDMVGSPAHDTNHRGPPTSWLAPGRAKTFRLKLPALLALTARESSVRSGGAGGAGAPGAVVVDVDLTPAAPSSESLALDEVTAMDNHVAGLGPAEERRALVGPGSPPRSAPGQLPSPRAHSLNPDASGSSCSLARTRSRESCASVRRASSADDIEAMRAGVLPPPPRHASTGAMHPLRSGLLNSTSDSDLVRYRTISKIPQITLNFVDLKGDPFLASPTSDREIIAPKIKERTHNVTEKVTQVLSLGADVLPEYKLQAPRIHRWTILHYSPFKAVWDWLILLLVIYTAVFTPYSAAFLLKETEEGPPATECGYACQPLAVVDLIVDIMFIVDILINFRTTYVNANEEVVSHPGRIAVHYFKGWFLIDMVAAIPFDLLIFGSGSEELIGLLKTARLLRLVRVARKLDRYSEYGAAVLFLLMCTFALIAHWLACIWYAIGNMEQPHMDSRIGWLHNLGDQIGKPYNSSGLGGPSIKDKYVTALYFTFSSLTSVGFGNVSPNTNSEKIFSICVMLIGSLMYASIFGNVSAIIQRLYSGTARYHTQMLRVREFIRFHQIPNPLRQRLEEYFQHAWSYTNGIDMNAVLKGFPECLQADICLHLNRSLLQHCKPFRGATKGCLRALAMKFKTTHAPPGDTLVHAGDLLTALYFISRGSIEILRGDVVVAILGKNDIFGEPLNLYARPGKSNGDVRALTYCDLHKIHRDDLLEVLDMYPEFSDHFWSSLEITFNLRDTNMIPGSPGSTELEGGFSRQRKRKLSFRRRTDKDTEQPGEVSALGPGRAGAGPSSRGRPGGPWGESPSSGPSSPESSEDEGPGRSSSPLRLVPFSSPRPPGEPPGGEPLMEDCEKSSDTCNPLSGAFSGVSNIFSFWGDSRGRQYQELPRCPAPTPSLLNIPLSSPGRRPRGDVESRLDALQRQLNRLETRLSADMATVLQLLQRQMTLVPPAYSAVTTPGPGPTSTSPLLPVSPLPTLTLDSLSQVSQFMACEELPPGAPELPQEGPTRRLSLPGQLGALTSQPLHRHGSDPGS
Sodium channel protein type 9 subunit alpha (Homo sapiens, UniProt Q15858), sequence (Q15858 whole entry): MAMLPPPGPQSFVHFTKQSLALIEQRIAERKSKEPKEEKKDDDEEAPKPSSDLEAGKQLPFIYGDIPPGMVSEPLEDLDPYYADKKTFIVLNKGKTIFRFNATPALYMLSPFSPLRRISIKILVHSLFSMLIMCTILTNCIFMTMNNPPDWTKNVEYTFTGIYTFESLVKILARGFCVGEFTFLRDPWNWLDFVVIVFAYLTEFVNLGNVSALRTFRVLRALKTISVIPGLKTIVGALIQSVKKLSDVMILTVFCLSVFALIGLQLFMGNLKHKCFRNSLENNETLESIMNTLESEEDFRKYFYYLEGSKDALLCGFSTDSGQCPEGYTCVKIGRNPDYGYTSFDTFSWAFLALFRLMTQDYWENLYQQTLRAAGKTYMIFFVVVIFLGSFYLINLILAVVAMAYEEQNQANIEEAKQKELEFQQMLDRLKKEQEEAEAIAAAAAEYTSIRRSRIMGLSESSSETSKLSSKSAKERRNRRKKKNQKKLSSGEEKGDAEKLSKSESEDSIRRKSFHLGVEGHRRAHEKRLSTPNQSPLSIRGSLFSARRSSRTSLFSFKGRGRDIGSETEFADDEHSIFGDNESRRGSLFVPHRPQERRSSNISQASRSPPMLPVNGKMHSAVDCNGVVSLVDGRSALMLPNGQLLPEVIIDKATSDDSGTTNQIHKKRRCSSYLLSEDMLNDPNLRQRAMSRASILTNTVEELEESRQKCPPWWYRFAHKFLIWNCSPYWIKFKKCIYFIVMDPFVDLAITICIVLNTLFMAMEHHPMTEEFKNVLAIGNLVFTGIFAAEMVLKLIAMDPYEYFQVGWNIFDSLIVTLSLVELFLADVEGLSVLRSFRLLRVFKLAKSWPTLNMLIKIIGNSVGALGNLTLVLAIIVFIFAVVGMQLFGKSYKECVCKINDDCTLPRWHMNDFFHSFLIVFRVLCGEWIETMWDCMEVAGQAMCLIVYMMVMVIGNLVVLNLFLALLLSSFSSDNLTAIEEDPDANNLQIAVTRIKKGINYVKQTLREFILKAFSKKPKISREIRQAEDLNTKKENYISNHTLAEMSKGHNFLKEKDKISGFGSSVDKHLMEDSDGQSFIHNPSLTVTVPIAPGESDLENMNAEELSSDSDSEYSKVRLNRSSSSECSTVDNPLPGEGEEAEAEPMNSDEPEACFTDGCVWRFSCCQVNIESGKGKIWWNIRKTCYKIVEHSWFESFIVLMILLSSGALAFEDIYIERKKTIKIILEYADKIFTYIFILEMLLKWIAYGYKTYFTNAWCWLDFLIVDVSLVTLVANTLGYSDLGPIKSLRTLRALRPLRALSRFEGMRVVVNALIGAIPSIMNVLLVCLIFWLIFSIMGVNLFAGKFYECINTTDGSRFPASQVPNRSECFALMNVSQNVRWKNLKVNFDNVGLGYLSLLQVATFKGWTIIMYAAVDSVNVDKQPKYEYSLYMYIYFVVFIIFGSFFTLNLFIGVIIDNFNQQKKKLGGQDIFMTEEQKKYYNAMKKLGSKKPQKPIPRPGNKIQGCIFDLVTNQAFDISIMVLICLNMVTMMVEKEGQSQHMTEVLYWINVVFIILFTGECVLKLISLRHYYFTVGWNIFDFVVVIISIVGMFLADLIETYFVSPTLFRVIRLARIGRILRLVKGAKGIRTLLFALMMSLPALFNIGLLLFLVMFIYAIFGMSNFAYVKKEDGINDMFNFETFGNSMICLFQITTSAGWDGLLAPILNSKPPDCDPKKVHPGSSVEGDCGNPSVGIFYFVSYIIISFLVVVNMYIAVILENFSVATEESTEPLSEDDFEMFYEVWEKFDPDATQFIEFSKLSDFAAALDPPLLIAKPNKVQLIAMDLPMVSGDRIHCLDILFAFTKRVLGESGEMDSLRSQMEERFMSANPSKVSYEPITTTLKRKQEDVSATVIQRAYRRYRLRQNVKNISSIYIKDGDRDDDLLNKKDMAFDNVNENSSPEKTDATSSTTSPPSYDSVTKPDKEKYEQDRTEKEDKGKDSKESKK

SMILES: Nc1noc2ccc(-c3cc(Cl)ccc3Oc3cc(F)c(S(=O)(=O)[N-]c4ncns4)cc3F)cc12.[Na+]
Activity (Mus musculus [1]): 59%
Activity (Rattus norvegicus [2]): 60%
Activity (Rattus norvegicus [3]): 43%
Cp(f) (Rattus norvegicus [4]): 250 nM
Cp(f) (Rattus norvegicus [5]): 250 nM
Activity (Mus musculus [6]): 83%

SMILES: Nc1noc2ccc(CCOc3cc(F)c(S(=O)(=O)Nc4ncns4)cc3F)cc12
inhibition at 5 µM (hERG (KCNH2)): < 11%
IC50 [10]: 0.241 µM

SMILES: Nc1n[nH]c2ccc(-c3cc(Cl)ccc3Oc3cc(F)c(S(=O)(=O)Nc4ncns4)cc3F)cc12
inhibition at 5 µM (hERG (KCNH2)): < 11%
IC50 [9]: > 10 µM

SMILES: O=S(=O)(Nc1ncns1)c1cc(F)c(Oc2ccc(Cl)cc2-c2cnc3n2CCNC3)cc1F
inhibition at 5 µM (hERG (KCNH2)): < 11%
IC50 [9]: > 10 µM

Now from value to compound, other results behind:

IC50 (Cytochrome P450 2D6): > 10 µM
IC50 (Cytochrome P450 3A4): > 10 µM
IC50 (Cytochrome P450 1A2): > 10 µM
IC50 (Cytochrome P450 2C9): 0.57 µM
IC50 (Cytochrome P450 2C19): > 10 µM
SMILES: Nc1noc2ccc(-c3cc(Cl)ccc3Oc3cc(F)c(S(=O)(=O)Nc4ncccn4)cc3F)cc12
inhibition at 5 µM (hERG (KCNH2)): < 11%

IC50 [7]: 0.74 µM
Ratio IC50 [8]: > 200
SMILES: O=S(=O)(Nc1ncns1)c1cc(F)c(Oc2ccc(Cl)cc2-c2ccc3nccnc3c2)cc1F
inhibition at 5 µM (hERG (KCNH2)): < 11%
Ratio IC50 (Homo sapiens): > 2700
IC50 [9]: > 10 µM

IC50 [10]: 5.2 µM
SMILES: Nc1noc2ccc(-c3cc(Cl)ccc3Oc3cc(F)c(S(=O)(=O)NCc4ncccn4)cc3F)cc12

IC50 [11]: 6.38 µM
IC50 [12]: 3.85 µM
IC50 [13]: > 10 µM
IC50 [14]: 0.0002 µM
IC50 [15]: 9.33 µM
IC50 [16]: 0.0008 µM
SMILES: Nc1nc2cc(-c3cc(Cl)ccc3Oc3cc(F)c(S(=O)(=O)Nc4ncns4)cc3F)ccc2[nH]1
inhibition at 5 µM (hERG (KCNH2)): < 11%
Ratio IC50 (Homo sapiens): > 12000
IC50 [9]: > 10 µM

Ratio IC50 [8]: > 60
SMILES: Nc1noc2ccc(-c3cc(Cl)ccc3Oc3cc(F)c(S(=O)(=O)Nc4ncns4)cc3F)cc12
Activity (Rattus norvegicus [17]): Dose-dependent effect
Activity (Mus musculus [18]): inactive
Activity (Rattus norvegicus [19]): Active
Activity (Rattus norvegicus [20]): inactive
Activity (Rattus norvegicus [21]): inactive
Activity (Mus musculus [22]): Dose-dependent effect

IC50 [10]: 0.017 µM
SMILES: O=S(=O)(Nc1ncns1)c1cc(F)c(Oc2ccc(Cl)cc2-c2cccc3nccn23)cc1F
inhibition at 5 µM (hERG (KCNH2)): < 11%
IC50 [9]: > 10 µM
